≈ marks a conversion by molar mass, not a printed value.
Legend:
Rhizoctonia solani [1] = test: In vivo control of rice sheath blight (RSB); details: rice cultivar Nakdong
Protocol: The control efficacy of Streptomyces sp. JCK-6141 strain against rice sheath blight (RSB) was examined in vivo. As an experimental plant, the rice cultivar Nakdong (Oryza sativa L.) was used.
One day before pathogen inoculation, the Nakdong rice plants were treated by soil drenching with 10 ml of each of the 3-fold and 9-fold dilutions of the Streptomyces sp. JCK-6141 strain culture in distilled water. After putting an appropriate amount of Nakdong rice bran treated with the dilutions was put into a 1-L culture bottle and sterilized, followed by evenly inoculating finely ground mycelial mass of cultured Rhizoctonia solani into the pots where the rice plants had been grown. After inoculation, incubation was carried out for 3 days in a humid chamber (25° C.) and then for 4 days in an incubator with a relative humidity of 80%. Examination was made of the onset of the disease. As a control, the synthetic chemical fungicide Flutolanil was used at 20 μg/ml or 50 μg/ml concentration.

Puccinia recondite = test: In vivo control of wheat leaf rust; details: wheat cultivar Eunpa, 7 days after inoculation
Botryoshpaeria dothidea = test: organism not typed; type: cell-based; details: 24 hours at 25° C.; read-out: MIC, F61
Botryritis cinerea = test: organism not typed; type: cell-based; details: 24 hours at 25° C.; read-out: MIC, F61
Colletotrichum horii = test: microbe, parasite or virus in culture; type: cell-based; details: 24 hours at 25° C., read-out: MIC, F61
Curvularia lunata = test: microbe, parasite or virus in culture; type: cell-based; details: 24 hours at 25° C., read-out: MIC, F61
Endothia parasitica = test: microbe, parasite or virus in culture; type: cell-based; details: Cryphonectria parasitica; 24 hours at 25° C.; read-out: MIC, F61
Fusarium graminearum = test: microbe, parasite or virus in culture; type: cell-based; details: 24 h, read-out: MIC, F61 (μg/ml)
[2] = system: Fusarium oxysporum f. sp. raphani; test: microbe, parasite or virus in culture; type: cell-based; details: 24 hours at 25° C., read-out: MIC, F61
[3] = system: Fusarium oxysporum f. sp. cucumerinum; test: microbe, parasite or virus in culture; type: cell-based; details: 24 hours at 25° C., read-out: MIC, F61
Gaeumannomyces graminis = test: microbe, parasite or virus in culture; type: cell-based; details: 24 hours at 25° C., read-out: MIC, F61
Magnaporthiopsis poae = test: microbe, parasite or virus in culture; type: cell-based; details: 24 hours at 25° C., read-out: MIC, F61
Magnapothe oryzae = test: organism not typed; type: cell-based; details: 24 h, read-out: MIC, F61 (μg/ml)
Phythium ultimum = test: organism not typed; type: cell-based; details: 24 hours at 25° C.; read-out: MIC, F61
Rhizoctonia solani [4] = test: microbe, parasite or virus in culture; type: cell-based; details: 24 hours at 25° C., read-out: MIC, F61
Sclerotinia homoeocarpa = test: microbe, parasite or virus in culture; type: cell-based; details: Clarireedia homoeocarpa; 24 hours at 25° C.; read-out: MIC, F61
Valsa ceratosperma = test: microbe, parasite or virus in culture; type: cell-based; details: Cytospora ceratosperma; 24 hours at 25° C.; read-out: MIC, F61
Phytophthora cactorum = test: microbe, parasite or virus in culture; type: cell-based; details: 24 hours at 25° C., read-out: MIC, F61
Phytophthora cambivora = test: microbe, parasite or virus in culture; type: cell-based; details: 24 hours at 25° C., read-out: MIC, F61
Phytophthora cinnamomi = test: microbe, parasite or virus in culture; type: cell-based; details: 24 hours at 25° C., read-out: MIC, F61

## CC(C)Oc1cccc(NC(=O)c2ccccc2C(F)(F)F)c1 [Flutolanil]
Rhizoctonia solani [1]; 20 μg/ml
  RSB Control (%): 100.0 ± 0.0 a %
Rhizoctonia solani [1]; 50 μg/ml
  RSB Control (%): 100.0 ± 0.0 a %
Puccinia recondite; 20 μg/ml
  Wheat leaf rust control (%): 73.3 ± 6.7 b %
Puccinia recondite; 50 μg/ml
  Wheat leaf rust control (%): 100.0 ± 0.0 a %

## CCCCCC[C@@]1(OC(=O)CCC(=O)O)CC[C@]2(CC[C@H](C)[C@@H](C/C=C(C)/C=C/[C@H](O)[C@@H](C)/C=C/C(=O)O)O2)O[C@H]1/C=C/C(C)=C/C(=O)O [F61, reveromycin E]
Botryoshpaeria dothidea
  MIC: 0.098 µg/mL (≈ 0.142 µM)
Botryritis cinerea
  MIC: 1.56 µg/mL (≈ 2.26 µM)
Colletotrichum horii
  MIC: 0.049 µg/mL (≈ 0.0711 µM)
Curvularia lunata
  MIC: 0.78 µg/mL (≈ 1.13 µM)
Endothia parasitica
  MIC: 1.56 µg/mL (≈ 2.26 µM)
Fusarium graminearum
  MIC: 0.195 µg/mL (≈ 0.283 µM)
[2]
  MIC: 1.56 µg/mL (≈ 2.26 µM)
[3]
  MIC: 1.56 µg/mL (≈ 2.26 µM)
Gaeumannomyces graminis
  MIC: 3.12 µg/mL (≈ 4.54 µM)
Magnaporthiopsis poae
  MIC: 0.0244 µg/mL (≈ 0.0354 µM)
Magnapothe oryzae
  MIC: 0.78 µg/mL (≈ 1.13 µM)
Phythium ultimum
  MIC: 1.56 µg/mL (≈ 2.26 µM)
Rhizoctonia solani [4]
  MIC: 1.56 µg/mL (≈ 2.26 µM)
Sclerotinia homoeocarpa
  MIC: 0.195 µg/mL (≈ 0.283 µM)
Valsa ceratosperma
  MIC: 0.78 µg/mL (≈ 1.13 µM)
Phytophthora cactorum
  MIC: 0.195 µg/mL (≈ 0.283 µM)
Phytophthora cambivora
  MIC: 0.195 µg/mL (≈ 0.283 µM)
Phytophthora cinnamomi
  MIC: 0.39 µg/mL (≈ 0.566 µM)
